The record followed here is US5843900A (priority 1995, dated 1998).

One assay concerns the target human BK2 receptor (Homo sapiens, UniProt P30411). The assay can be described thus: biochemical. The format is binding.
Assay [1] relates to paw licking following formalin injection. Particulars: mouse, in vivo.
Assay [2] concerns mustard oil induced neurogenic inflammation in the rat hind paw. Particulars: in vivo.
The test system of assay [3] is hypotensive response to bradykinin. Kind of assay: Rat Blood Pressure: hypotensive response to bradykinin. Format: in vivo. The note with it: at the dose used in the carrageenan test. As to the method: Male rats were anesthetised with urethane, 1.25 g/kg, and cannulae were placed in the carotid artery and femoral vein for the injection and infusion of compounds and in the femoral artery for the recording of blood pressure. Standard hypotensive responses were obtained to repeated administration of bradykinin, 80 pM. These were repeated in the presence of increasing dose infusions of CP-0840. […] The selectivity of CP-0840 was assessed at a dose of 3 ug/kg/min. […] CP-0840 can be said to be a selective antagonist of bradykinin in vivo in the rat blood pressure assay (FIG. 9).

Assay [4] deals with carrageenan induced edema in the rat hind paw. Particulars: in vivo.

Square brackets hold non-standard residues; d marks the D form. Peptide text beside a SMILES is read from it. * marks the point of attachment. X21 = CN1CC[C@]23c4c5ccc(OCCCCCCCCCCCC(=O)*)c4O[C@H]2[C@@H](O)CC[C@H]3[C@H]1C5; Hyp = O=C(O)[C@@H]1C[C@@H](O)CN1; dTic = O=C(O)[C@H]1Cc2ccccc2CN1; 2Thi = N[C@@H](Cc1cccs1)C(=O)O; Gly(N-cHex) = O=C(O)CNC1CCCCC1

human BK2 receptor, sequence (P30411 28-391): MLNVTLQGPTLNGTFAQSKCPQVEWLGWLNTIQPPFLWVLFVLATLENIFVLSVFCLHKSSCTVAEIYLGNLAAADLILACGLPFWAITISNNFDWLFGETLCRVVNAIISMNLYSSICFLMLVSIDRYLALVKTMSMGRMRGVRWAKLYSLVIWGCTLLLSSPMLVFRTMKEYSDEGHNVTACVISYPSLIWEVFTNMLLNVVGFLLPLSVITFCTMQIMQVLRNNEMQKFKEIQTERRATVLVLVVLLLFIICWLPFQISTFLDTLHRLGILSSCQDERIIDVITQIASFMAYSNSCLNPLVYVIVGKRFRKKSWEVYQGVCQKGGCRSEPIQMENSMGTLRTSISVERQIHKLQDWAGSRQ

On to `CN1CC[C@]23c4c5ccc(OCCCCCCCCCCCC(=O)NCCCC[C@H](NC(=O)[C@H](CCCNC(=N)N)NC(=O)[C@H](N)CCCNC(=N)N)C(=O)N6C[C@H](O)C[C@H]6C(=O)NCC(=O)N[C@@H](Cc6cccs6)C(=O)N[C@@H](CO)C(=O)N6Cc7ccccc7C[C@@H]6C(=O)N(CC(=O)N[C@@H](CCCNC(=N)N)C(=O)O)C6CCCCC6)c4O[C@H]2[C@@H](O)CC[C@H]3[C@H]1C5` [CP 851] (H-[dR]RK(X21)[Hyp]G[2Thi]S[dTic][Gly(N-cHex)]R-OH), for which the midpoint of inhibition on human BK2 receptor, the IC50, lay at 39.8 nM.

For `CN1CC[C@]23c4c5ccc(OCc6ccc(C(=O)NCCC(=O)Nc7ccc(CC(=O)N[C@H](CCCNC(=N)N)C(=O)N[C@@H](CCCNC(=N)N)C(=O)N8CCC[C@H]8C(=O)N8C[C@H](O)C[C@H]8C(=O)NCC(=O)N[C@@H](Cc8cccs8)C(=O)N[C@@H](CO)C(=O)N8Cc9ccccc9C[C@@H]8C(=O)N(CC(=O)N[C@@H](CCCNC(=N)N)C(=O)O)C8CCCCC8)cc7)cc6)c4O[C@H]2[C@@H](O)C=C[C@H]3[C@H]1C5` [CP 836], half-maximal inhibition against human BK2 receptor (IC50) required 1.26 nM.

As for `CN1CC[C@]23c4c5ccc(OCCCCCCCCCCCC(=O)NCCCC[C@H](NC(=O)[C@H](N)CCCNC(=N)N)C(=O)N6CCC[C@H]6C(=O)N6C[C@H](O)C[C@H]6C(=O)NCC(=O)N[C@@H](Cc6cccs6)C(=O)N[C@@H](CO)C(=O)N6Cc7ccccc7C[C@@H]6C(=O)N(CC(=O)N[C@@H](CCCNC(=N)N)C(=O)O)C6CCCCC6)c4O[C@H]2[C@@H](O)CC[C@H]3[C@H]1C5` [CP 723] (H-[dR]K(X21)P[Hyp]G[2Thi]S[dTic][Gly(N-cHex)]R-OH), 0.398 nM corresponded to half-maximal inhibition against human BK2 receptor (IC50).

For the compound `CN1CC[C@]23c4c5ccc(OCCCCCCCCCCCC(=O)N[C@H](CCCNC(=N)N)C(=O)N[C@@H](CCCNC(=N)N)C(=O)N6CCC[C@H]6C(=O)N6C[C@H](O)C[C@H]6C(=O)NCC(=O)N[C@@H](Cc6cccs6)C(=O)N[C@@H](CO)C(=O)N6Cc7ccccc7C[C@@H]6C(=O)N(CC(=O)N[C@@H](CCCNC(=N)N)C(=O)O)C6CCCCC6)c4O[C@H]2[C@@H](O)CC[C@H]3[C@H]1C5` [CP 695], at human BK2 receptor, the IC50 is 1.26 nM. Against the preceding compound, the IC50 is about 3.2-fold higher.

Consider `CN1CC[C@]23c4c5ccc(OCCCCCCCCCCCC(=O)NCCCC[C@H](NC(=O)CNC(=O)[C@@H]6C[C@@H](O)CN6C(=O)[C@@H]6CCCN6C(=O)[C@H](CCCNC(=N)N)NC(=O)[C@H](N)CCCNC(=N)N)C(=O)N[C@@H](CO)C(=O)N6Cc7ccccc7C[C@@H]6C(=O)N(CC(=O)N[C@@H](CCCNC(=N)N)C(=O)O)C6CCCCC6)c4O[C@H]2[C@@H](O)CC[C@H]3[C@H]1C5` [CP 831] (H-[dR]RP[Hyp]GK(X21)S[dTic][Gly(N-cHex)]R-OH), for which, at human BK2 receptor, the midpoint of inhibition, the IC50, lay at 126 nM.

In turn, `CN1CC[C@]23c4c5ccc(OCCCCCCCCCCCC(=O)NCCCC[C@H](NC(=O)[C@@H]6C[C@@H](O)CN6C(=O)[C@@H]6CCCN6C(=O)[C@H](CCCNC(=N)N)NC(=O)[C@H](N)CCCNC(=N)N)C(=O)N[C@@H](Cc6cccs6)C(=O)N[C@@H](CO)C(=O)N6Cc7ccccc7C[C@@H]6C(=O)N(CC(=O)N[C@@H](CCCNC(=N)N)C(=O)O)C6CCCCC6)c4O[C@H]2[C@@H](O)CC[C@H]3[C@H]1C5` [CP 853] (H-[dR]RP[Hyp]K(X21)[2Thi]S[dTic][Gly(N-cHex)]R-OH) showed an IC50 on human BK2 receptor of 63.1 nM.

In the case of `CN1CC[C@]23c4c5ccc(O)c4O[C@H]2[C@@H](OCc2ccc(C(=O)N[C@H](CCCNC(=N)N)C(=O)N[C@@H](CCCNC(=N)N)C(=O)N4CCC[C@H]4C(=O)N4C[C@H](O)C[C@H]4C(=O)NCC(=O)N[C@@H](Cc4cccs4)C(=O)N[C@@H](CO)C(=O)N4Cc6ccccc6C[C@@H]4C(=O)N(CC(=O)N[C@@H](CCCNC(=N)N)C(=O)O)C4CCCCC4)cc2)C=C[C@H]3[C@H]1C5` [CP 906], inhibition at human BK2 receptor was half-maximal at 0.501 nM (IC50).

At human BK2 receptor, `CN1CC[C@]23c4c5ccc(OCCCCCCCCCCCCCCC(=O)N[C@H](CCCNC(=N)N)C(=O)N[C@@H](CCCNC(=N)N)C(=O)N6CCC[C@H]6C(=O)N6C[C@H](O)C[C@H]6C(=O)NCC(=O)N[C@@H](Cc6cccs6)C(=O)N[C@@H](CO)C(=O)N6Cc7ccccc7C[C@@H]6C(=O)N(CC(=O)N[C@@H](CCCNC(=N)N)C(=O)O)C6CCCCC6)c4O[C@H]2[C@@H](O)CC[C@H]3[C@H]1C5` [CP 844] gave an IC50 of 3.16 nM. Compared with the last compound, the IC50 is about 6.3-fold higher.

Compound `CN1CC[C@]23c4c5ccc(O)c4O[C@H]2[C@@H](OCCCCCCCCCCCC(=O)N[C@H](CCCNC(=N)N)C(=O)N[C@@H](CCCNC(=N)N)C(=O)N2CCC[C@H]2C(=O)N2C[C@H](O)C[C@H]2C(=O)NCC(=O)N[C@@H](Cc2cccs2)C(=O)N[C@@H](CO)C(=O)N2Cc4ccccc4C[C@@H]2C(=O)N(CC(=O)N[C@@H](CCCNC(=N)N)C(=O)O)C2CCCCC2)CC[C@H]3[C@H]1C5` [CP 896] showed an IC50 against human BK2 receptor of 2 nM.

On to `CN1CC[C@]23c4c5ccc(O)c4O[C@H]2[C@@H](OCCCc2cccc(C(=O)N[C@H](CCCNC(=N)N)C(=O)N[C@@H](CCCNC(=N)N)C(=O)N4CCC[C@H]4C(=O)N4C[C@H](O)C[C@H]4C(=O)NCC(=O)N[C@@H](Cc4cccs4)C(=O)N[C@@H](CO)C(=O)N4Cc6ccccc6C[C@@H]4C(=O)N(CC(=O)N[C@@H](CCCNC(=N)N)C(=O)O)C4CCCCC4)c2)C=C[C@H]3[C@H]1C5` [CP 902], for which the IC50 against human BK2 receptor was 0.398 nM. Compared with the last compound, the IC50 is about 5-fold lower.

For the compound “D-Arg-Arg-Pro-Hyp-Gly-Thi-Ser-D-Tic-NChg-Arg [CP-0597]”, the “effect on first and second phase responses (paw licking time)” value in assay [1] is “no significant effect”. The “effect on mustard oil edema response (Evan's blue dye)” value in assay [2] was “without effect”. In addition, the “duration of action against blood pressure responses to bradykinin” value in assay [3] is given as “greater than 6 h”. In addition, in assay [4], the “Percentage inhibition of the carrageenan paw edema, 3 h” value was 66.3 and the “Percentage inhibition of the carrageenan paw edema, 6 h” value is 0. The “effect on carrageenan edema response” value in assay [4] (sc) is given as “significant inhibition from 0-3 h”.

Regarding `CN1CC[C@]23c4c5ccc(O)c4O[C@H]2[C@@H](OCCCCCC(=O)N[C@H](CCCNC(=N)N)C(=O)N[C@@H](CCCNC(=N)N)C(=O)N2CCC[C@H]2C(=O)N2C[C@H](O)C[C@H]2C(=O)NCC(=O)N[C@@H](Cc2cccs2)C(=O)N[C@@H](CO)C(=O)N2Cc4ccccc4C[C@@H]2C(=O)N(CC(=O)N[C@@H](CCCNC(=N)N)C(=O)O)C2CCCCC2)CC[C@H]3[C@H]1C5` [CP 900], the 50% inhibitory concentration (IC50) at human BK2 receptor was 1.58 nM.

`CN1CC[C@]23c4c5ccc(O)c4O[C@H]2[C@@H](OCCCc2ccc(C(=O)N[C@H](CCCNC(=N)N)C(=O)N[C@@H](CCCNC(=N)N)C(=O)N4CCC[C@H]4C(=O)N4C[C@H](O)C[C@H]4C(=O)NCC(=O)N[C@@H](Cc4cccs4)C(=O)N[C@@H](CO)C(=O)N4Cc6ccccc6C[C@@H]4C(=O)N(CC(=O)N[C@@H](CCCNC(=N)N)C(=O)O)C4CCCCC4)cc2)C=C[C@H]3[C@H]1C5` [CP 905] had an IC50 against human BK2 receptor of 0.501 nM.

In the case of `CN1CC[C@]23c4c5ccc(OCCCCCCCCCCCC(=O)NCCCC[C@H](NC(=O)[C@@H]6CCCN6C(=O)[C@H](CCCNC(=N)N)NC(=O)[C@H](N)CCCNC(=N)N)C(=O)NCC(=O)N[C@@H](Cc6cccs6)C(=O)N[C@@H](CO)C(=O)N6Cc7ccccc7C[C@@H]6C(=O)N(CC(=O)N[C@@H](CCCNC(=N)N)C(=O)O)C6CCCCC6)c4O[C@H]2[C@@H](O)CC[C@H]3[C@H]1C5` [CP 841] (H-[dR]RPK(X21)G[2Thi]S[dTic][Gly(N-cHex)]R-OH), at human BK2 receptor, the IC50 was 12.6 nM.

`CN1CC[C@]23c4c5ccc(OCc6cccc(C(=O)NCCC(=O)Nc7ccc(CC(=O)N[C@H](CCCNC(=N)N)C(=O)N[C@@H](CCCNC(=N)N)C(=O)N8CCC[C@H]8C(=O)N8C[C@H](O)C[C@H]8C(=O)NCC(=O)N[C@@H](Cc8cccs8)C(=O)N[C@@H](CO)C(=O)N8Cc9ccccc9C[C@@H]8C(=O)N(CC(=O)N[C@@H](CCCNC(=N)N)C(=O)O)C8CCCCC8)cc7)c6)c4O[C@H]2[C@@H](O)C=C[C@H]3[C@H]1C5` [CP 862] gave an IC50 against human BK2 receptor of 1 nM.

The term IC50 denotes the concentration that inhibits the measured activity by half. Lower therefore signals inhibition by little substance.
